From patent publication US12578343B2, “Selective ACKR3 modulators and uses thereof” (Luxembourg Institute of Health (LIH), priority 2019, dated 2026) come the findings set out here.

Common to all, as to assay type: cell-based
For test [1], the target named is ACKR3 (Homo sapiens, UniProt P25106). The test can be described thus: Uptake of fluorescently labelled opioid peptides by ACKR3-expressing U87 cells, imaging flow cytometry. On the set-up: expressed in transfected cells; for the receptor comparison in the uptake assay, transient pcDNA3.1). The settings on record: saturating concentration of LIH383 (3 μM). For orientation: In flow cytometry, cells or beads pass a laser one at a time.
Procedure: Visualization of Fluorescently Labelled Opioid Peptides Uptake by Imagestream
48 hours post transfection, cells were harvested and treated as described above. Dead cells were excluded using Zombie NIR or Zombie Green viability dye (BioLegend) for FAM-labelled peptides and Cy5-labelled peptides, respectively. Images of 1×10^4 in-focus, living single cells were acquired with an ImageStream MKII imaging flow cytometer (Amnis) using 40× magnification (60× magnification for smNPCs). Samples were analysed using Ideas6.2 software. The number of spots per cell was determined using a mask-based software wizard.

In test [2] the target is T1, MOR (Homo sapiens, UniProt P35372).
T1 construct: expressed in transfected cells; host or cells: U87 cells, transient co-transfection of pNBe vectors
The settings on record: concentrations as high as 3 μM. How it is done:
In brief, 1.2×10^6 U87 cells were plated in 10 cm-culture dishes and 48 hours later co-transfected with pNBe vectors encoding GPCRs C-terminally tagged to SmBiT and human β-arrestin-1 or -2 or mini G proteins (mG, engineered GTPase domains of Gα subunits,) N-terminally fused to LgBiT. 48 hours post-transfection cells were harvested, incubated 25 minutes at 37° C. with Nano-Glo Live Cell substrate diluted 200-fold and distributed into white 96-well plates (5×10^4 cells per well). Ligand-induced, β-arrestin and mG recruitment to GPCRs was evaluated with a Mithras LB940 luminometer (Berthold Technologies) for 20 minutes. For concentration-response curves, the signal recorded with a saturating concentration of full agonist for each receptor was set as 100%.

For test [3], the system named is rat locus coeruleus neurons. How it is done:
1.9. Ex Vivo Rat Neuron Depolarization
Adult male Wistar rats (6 to 8-week old) were housed at room temperature in groups of three or four with a 12:12 hour light-dark cycle. All animals had access to ad libitum food and water. All procedures were carried out in accordance with guidelines of the European Communities Council Directive of 24 Nov. 1986 (86609EE) and were accepted by the Ethics Committee for Animal Use of the University of Liège (protocol 2061). All efforts were made to minimize animal suffering.
1.9.2. Brain Explant Preparation and Recording Procedures
Rats were anaesthetized with chloral hydrate (400 mg/kg, i.p.) and placed under a cap with oxygenated air (95% O2, 5% CO2) two minutes prior to decapitation. After decapitation, the brain was rapidly removed and placed in ice cold (˜2° C.) oxygenated artificial cerebrospinal fluid (aCSF) of the following composition: NaCl 130 mM, KCl 3.5 mM, NaH2PO4 1.25 mM, NaHCO3 24 mM, Glucose 10 mM, CaCl2 2 mM, MgSO4 1.25 mM. A block of tissue containing the pons was placed in a vibrating blade microtome (Vibratome 1000 Plus, Sectioning System) and a slice containing the locus coeruleus (LC) immediately rostral to the fourth ventricle and the VIIth nerve, used as anatomical landmarks, was cut coronally (400 μm thick). The slice was placed on a nylon mesh in a recording chamber (volume: 0.5 ml) where it was superfused by oxygenated aCSF (34.0±0.5° C.) at a rate of 2 to 3 ml/min. The LC was recognized as a translucent region during transillumination, lateral to the fourth ventricle. All experiments were performed in oxygenated aCSF with synaptic blockers consisting of 10 μM CNQX, 10 μM SR95531, 1 μM MK801, and 1 μM CGP55845, which block AMPA/Kainate, GABAA, NMDA, and GABAB receptors, respectively. This ensured that the spontaneous firing of the neurons was only due to its endogenous pace making.
Extracellular single cell recordings of LC neurons were performed with glass microelectrodes filled with aCSF (resistance 10-20 MΩ). Signals were passed through an impedance adapter and were amplified 1000× using a home-made amplifier. […] Data were collected and analysed with the Spike 2 software (Cambridge Electronic Design). […] The duration of the extracellularly recorded action potentials was 2-3 ms. Drugs and peptides were applied for at least 10 minutes.
The mean firing rate over 1 minute was calculated during each condition. Next, the inhibition of firing by the peptides and drugs used (LIH383 and dynorphin) was quantified as the % of total inhibition. For this purpose, present inventors considered the mean firing rate during the last minute of each condition (control, LIH383 alone, LIH383 plus a given concentration of dynorphin).

Sequence of ACKR3 (P25106 whole entry): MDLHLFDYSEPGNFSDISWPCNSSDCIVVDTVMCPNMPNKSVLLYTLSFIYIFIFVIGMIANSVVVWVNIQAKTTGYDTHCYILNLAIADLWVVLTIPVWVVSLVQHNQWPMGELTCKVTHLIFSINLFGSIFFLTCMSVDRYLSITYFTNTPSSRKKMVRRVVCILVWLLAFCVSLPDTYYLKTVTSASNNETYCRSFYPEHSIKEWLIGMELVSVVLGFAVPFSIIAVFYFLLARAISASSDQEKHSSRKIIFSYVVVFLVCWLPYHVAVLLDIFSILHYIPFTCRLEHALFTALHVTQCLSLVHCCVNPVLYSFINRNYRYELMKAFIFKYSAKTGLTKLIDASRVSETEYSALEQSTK
T1 sequence (P35372 whole entry): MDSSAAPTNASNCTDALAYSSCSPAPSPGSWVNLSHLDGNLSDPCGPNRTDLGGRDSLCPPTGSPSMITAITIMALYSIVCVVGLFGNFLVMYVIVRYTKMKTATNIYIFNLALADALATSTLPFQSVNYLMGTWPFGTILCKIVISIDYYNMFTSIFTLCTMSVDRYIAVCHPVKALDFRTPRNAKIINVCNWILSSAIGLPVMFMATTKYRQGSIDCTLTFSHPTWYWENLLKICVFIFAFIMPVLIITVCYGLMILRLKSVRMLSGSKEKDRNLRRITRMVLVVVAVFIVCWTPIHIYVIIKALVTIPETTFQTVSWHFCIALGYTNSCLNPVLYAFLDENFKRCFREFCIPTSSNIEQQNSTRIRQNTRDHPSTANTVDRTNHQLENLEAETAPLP

For the compound `CSCC[C@H](NC(=O)[C@H](Cc1ccccc1)NC(=O)CNC(=O)CNC(=O)[C@@H](N)Cc1ccccc1)C(=O)N[C@@H](CCCNC(=N)N)C(=O)N[C@@H](CCCNC(=N)N)C(=O)N[C@@H](CCCCN)C(N)=O` [LIH383], the “dynorphin A-FAM uptake by U87-ACKR3 cells compared to U87-ACKR3 cells pre-incubated with LIH383” value in test [1] is “notably higher number of distinguishable vesicle-like structures and mean fluorescent intensity”. In addition, the “activation or inhibition of MOR” value in test [2] is “no activation or inhibition”. In test [3] (LIH383 1 or 3 μM), the “effect of pretreatment on dynorphin A-induced depolarization inhibition” value is “significant increase of depolarization inhibition and an apparent improved potency of dynorphin A towards its classical receptors”. Further, in test [3] (concentration as high as 3 μM), the “inhibition of neuronal firing” value is listed as “did not lead to significant inhibition of neuronal firing”.
